Measurements from patent publication US20190345199A1, “LIPOLANTHIPEPTIDES AND THEIR USES AS ANTIMICROBIAL AGENTS” (DEINOVE, priority 2017, published 2019).
≈ marks a conversion by molar mass, not a printed value. Where two headings read alike, the source gives them in different places.

Key:
Assay type in all cases: cell-based
Candida glabrata = test: MIC, extended antimicrobial activities (fungi); conditions: Nakaseomyces glabratus; Candida glabrata DSMZ6425
Staphylococcus aureus = test: MIC, CLSI dilution antibacterial susceptibility test; conditions: read-out: Minimal Inhibitory Concentration (MIC)
Method: (§1) The measures of activities were conducted on compound NOC1 from Nocardia terpenica following the protocol recommended by the Clinical and Laboratory Standards Institute (CLSI)—Clinical and Laboratory Standards Institute (CLSI, formerly NCCLS): Methods for Dilution Antibacterial Susceptibility Tests for Bacteria That Grow Aerobically; Approved Standard—Tenth Edition (2015). Clinical and Laboratory Standards Institute Document M07-A10.
(§2) The measures of activities were conducted on compounds A, B and C, following the protocol recommended by the Clinical and Laboratory Standards Institute (CLSI)—Clinical and Laboratory Standards Institute (CLSI, formerly NCCLS):
(§3) Methods for Dilution Antibacterial Susceptibility Tests for Bacteria That Grow Aerobically; Approved Standard—Tenth Edition (2015). Clinical and Laboratory Standards Institute Document M07-A10.

Enterococcus faecium = test: as above
Method: as §1, §2, §3

Enterococcus faecalis = test: as above
Method: as §1

Bacillus subtilis = test: as above; conditions: Bacillus subtilis ATCC6633
Method: as §1

Candida albicans = test: MIC, extended antimicrobial activities (fungi); conditions: Candida albicans ATCC10231
Candida krusei = test: MIC, extended antimicrobial activities (fungi); conditions: Pichia kudriavzevii; Candida krusei DSMZ6128
Candida tropicalis = test: MIC, extended antimicrobial activities (fungi); conditions: Candida tropicalis DSMZ11953
Method: as §1

Candida parapsilosis = test: MIC, extended antimicrobial activities (fungi); conditions: Lodderomyces parapsilosis; Candida parapsilosis DSMZ5784
Method: as §1

Cryptococcus neoformans = test: MIC, extended antimicrobial activities (fungi); conditions: Cryptococcus neoformans DSMZ6972

Q: `CCC(C)C1NC(=O)C(NC(=O)C(C)NC(=O)/C=C/C=C/CC/C=C/CCCCN/C(=N/C)NC)CC2(CS/C=C\NC(=O)CNC(=O)C(CC(N)=O)NC2=O)NC(=O)C(CO)NC1=O` (stereo not shown) [NOC1] was tested. Which MIC (Candida glabrata) did it give?
A: 12 µg/mL (≈ 12.9 µM)

Q: And the MIC (Staphylococcus aureus; S. aureus ATTC 1683 (ATCC1683), methicillin resistant)?
A: 16 µg/mL (≈ 17.2 µM)

Q: And the MIC (Staphylococcus aureus; S. aureus ATTC 13709 (ATCC13709), fully susceptible / methicillin sensitive)?
A: 2 µg/mL (≈ 2.15 µM)

Q: And the MIC (Staphylococcus aureus; S. aureus ATTC 25923 (ATCC25923), methicillin sensitive)?
A: 2 µg/mL (≈ 2.15 µM)

Q: What about the MIC (Staphylococcus aureus; S. aureus USA300, methicillin resistant) of the same molecule?
A: 60 µg/mL (≈ 64.4 µM)

Q: What about the MIC (Enterococcus faecium; Enterococcus faecium ATCC19434, vancomycin sensitive) of the same molecule?
A: 8 µg/mL (≈ 8.59 µM)

Q: What about the MIC (Enterococcus faecium; Enterococcus faecium ATCC51559, vancomycin resistant (gene vanA)) of the same molecule?
A: 16 µg/mL (≈ 17.2 µM)

Q: What about the MIC (Enterococcus faecium; Enterococcus faecium ATCC51858, vancomycin resistant (gene vanB)) of the same molecule?
A: 16 µg/mL (≈ 17.2 µM)

Q: What about the MIC (Enterococcus faecalis; Enterococcus faecalis ATCC29212, vancomycin sensitive) of the same molecule?
A: 160 µg/mL (≈ 172 µM)

Q: And the MIC (Enterococcus faecalis; Enterococcus faecalis ATCC700802, vancomycin resistant (gene vanB))?
A: 16 µg/mL (≈ 17.2 µM)

Q: And the MIC (Bacillus subtilis)?
A: 2 µg/mL (≈ 2.15 µM)

Q: And the MIC (Candida albicans)?
A: 3 µg/mL (≈ 3.22 µM)

Q: And the MIC (Candida krusei)?
A: 12 µg/mL (≈ 12.9 µM)

Q: What about the MIC (Candida tropicalis) of the same molecule?
A: 6 µg/mL (≈ 6.44 µM)

Q: And the MIC (Candida parapsilosis)?
A: 24 µg/mL (≈ 25.8 µM)

Q: What about the MIC (Cryptococcus neoformans) of the same molecule?
A: 24 µg/mL (≈ 25.8 µM)
